The values below are quoted from earlier work in article PMC11292818 (ACS Omega, 2024).

The data set addresses acetylcholinesterase (AChE) (Homo sapiens, UniProt P22303). The note with it: read-out: IC50 against acetylcholinesterase.

Sequence of acetylcholinesterase (AChE) (P22303 32-614, species assumed): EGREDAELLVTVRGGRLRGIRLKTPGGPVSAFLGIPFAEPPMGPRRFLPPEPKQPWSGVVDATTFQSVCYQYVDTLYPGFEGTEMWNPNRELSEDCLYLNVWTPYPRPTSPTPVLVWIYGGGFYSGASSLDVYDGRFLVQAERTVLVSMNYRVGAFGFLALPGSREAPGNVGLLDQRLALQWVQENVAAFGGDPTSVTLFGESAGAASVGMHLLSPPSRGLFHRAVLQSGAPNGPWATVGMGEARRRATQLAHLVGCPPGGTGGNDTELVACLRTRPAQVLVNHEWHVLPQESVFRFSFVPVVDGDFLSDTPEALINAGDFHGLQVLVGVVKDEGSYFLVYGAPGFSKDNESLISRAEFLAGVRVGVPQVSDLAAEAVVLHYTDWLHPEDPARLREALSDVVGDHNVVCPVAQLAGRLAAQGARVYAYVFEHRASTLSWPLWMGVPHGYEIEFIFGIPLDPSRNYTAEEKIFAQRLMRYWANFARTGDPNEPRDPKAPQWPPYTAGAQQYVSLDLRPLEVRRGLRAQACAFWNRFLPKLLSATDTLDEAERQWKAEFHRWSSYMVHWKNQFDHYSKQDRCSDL

`COc1cc(O)c(OC)c(O)c1C(=O)/C=C/c1ccccc1` [Compound 3, 2′,4′-dihydroxy-3′,6′-dimethoxychalcone]: the IC50 is 20.1 µM. Take `CC(C)=CCc1c(O)ccc(C(=O)/C=C/c2ccc(O)cc2)c1O` [Compound 4, isobavachalcone]: the IC50 is 18.3 µM.
